Target: human A2A adenosine receptor (Homo sapiens (Human), UniProt P29274)
Experiment: A2A receptor affinity binding assay (radioligand filtration binding or SPA, [3H]SCH58261)
Details: membranes from HEK293 or CHO cells expressing human A2A; Method (A) filtration or Method (B) SPA

Sequence of human A2A adenosine receptor (P29274 whole entry): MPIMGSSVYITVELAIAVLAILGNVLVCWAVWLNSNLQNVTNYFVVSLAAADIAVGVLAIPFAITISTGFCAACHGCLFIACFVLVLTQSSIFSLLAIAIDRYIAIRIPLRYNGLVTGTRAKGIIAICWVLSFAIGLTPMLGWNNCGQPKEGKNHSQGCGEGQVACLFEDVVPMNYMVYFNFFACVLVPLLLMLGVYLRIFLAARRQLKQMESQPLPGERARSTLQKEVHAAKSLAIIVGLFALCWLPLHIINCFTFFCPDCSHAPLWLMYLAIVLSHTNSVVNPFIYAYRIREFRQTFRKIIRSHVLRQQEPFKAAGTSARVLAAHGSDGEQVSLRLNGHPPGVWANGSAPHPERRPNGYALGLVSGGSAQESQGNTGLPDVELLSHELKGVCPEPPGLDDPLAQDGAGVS

IC50 [nM] | Structure (SMILES)
1.1 | COc1cccc2c1nc(N)n1nc([C@H]3C[C@@H](c4ccc(C(C)(N)C(F)F)nc4)C3)nc21 (stereo partly shown) [Ex-91, 2-{(1s,3s)-3-[6-(2-amino-1,1-difluoropropan-2-yl)pyridin-3-yl]cyclobutyl}-7-methoxy[1,2,4]triazolo[1,5-c]quinazolin-5-amine]
5.4 | COc1cccc2c1nc(N)n1nc([C@H]3C[C@@H](c4ccc(C5(N)CC(F)(F)C5)cn4)C3)nc21 [Ex-140, 2-((1s,3s)-3-(5-(1-amino-3,3-difluorocyclobutyl)pyridin-2-yl)cyclobutyl)-7-methoxy-[1,2,4]triazolo[1,5-c]quinazolin-5-amine]
0.3 | COc1cccc2c1nc(N)n1nc([C@H]3C[C@@H](c4ccc(C(N)C(F)(F)F)cc4)C3)nc21 (single isomer, unassigned) [Ex-75, 2-{cis-3-[4-(1-amino-2,2,2-trifluoroethyl)phenyl]cyclobutyl}-7-methoxy[1,2,4]triazolo[1,5-c]quinazolin-5-amine]
0.4 | COc1cccc2c1nc(N)n1nc([C@H]3C[C@H](c4ncc(C5(N)COC5)cc4C)C3)nc21 [Ex-124, 2-{trans-3-[5-(3-aminooxetan-3-yl)-3-methylpyridin-2-yl]cyclobutyl}-7-methoxy[1,2,4]triazolo[1,5-c]quinazolin-5-amine]
3 | COc1cc(F)cc2c1nc(N)n1nc([C@H]3C[C@@H](c4ccccc4C(C)(C)O)C3)nc21 (single isomer, unassigned) [Ex-52]
4.8 | COc1cccc2c1nc(N)n1nc([C@H]3C[C@H](c4ccc(C(N)C(F)F)cn4)C3)nc21 (stereo partly drawn) [Ex-73, 2-{trans-3-[5-(1-amino-2,2-difluoroethyl)pyridin-2-yl]cyclobutyl}-7-methoxy[1,2,4]triazolo[1,5-c]quinazolin-5-amine]
1.7 | COc1cccc2c1nc(N)n1nc([C@H]3C[C@@H](c4ccc(N5CCN(C)CC5)nc4)C3)nc21 [Ex-115, 7-methoxy-2-{cis-3-[6-(4-methylpiperazin-1-yl)pyridin-3-yl]cyclobutyl}[1,2,4]triazolo[1,5-c]quinazolin-5-amine]
2.9 | COc1cccc2c1nc(N)n1nc([C@H]3C[C@@H](c4ccc([C@@H](N)C(F)(F)F)nc4)C3)nc21 [Ex-95, 2-[(1s,3s)-3-{6-[(1R)-1-amino-2,2,2-trifluoroethyl]pyridin-3-yl}cyclobutyl]-7-methoxy[1,2,4]triazolo[1,5-c]quinazolin-5-amine]
1.8 | COc1cccc2c1nc(N)n1nc([C@H]3C[C@@H](c4ncc(C5(O)COC5)cc4C)C3)nc21 [Ex-119, 3-{6-[cis-3-(5-amino-7-methoxy[1,2,4]triazolo[1,5-c]quinazolin-2-yl)cyclobutyl]-5-methylpyridin-3-yl}oxetan-3-ol]
1.5 | COc1cc(F)cc2c1nc(N)n1nc(C3CC3C(C)(C)O)nc21 (stereo not shown) [Ex-28, 2-(2-(5-amino-9-fluoro-7-methoxy-[1,2,4]triazolo[1,5-c]quinazolin-2-yl)cyclopropyl)propan-2-ol]
7.9 | COc1cccc2c1nc(N)n1nc([C@H]3C[C@H](c4ccc(C(C)N)cn4)C3)nc21 (stereo partly drawn) [Ex-72, 2-{trans-3-[5-(1-aminoethyl)pyridin-2-yl]cyclobutyl}-7-methoxy[1,2,4]triazolo[1,5-c]quinazolin-5-amine]
6.6 | COc1cccc2c1nc(N)n1nc([C@H]3C[C@@H](c4ncc(C(C)(C)N)cc4Cl)C3)nc21 (single isomer, unassigned) [Ex-88, 2-{cis-3-[5-(2-aminopropan-2-yl)-3-chloropyridin-2-yl]cyclobutyl}-7-methoxy[1,2,4]triazolo[1,5-c]quinazolin-5-amine]

Structure (SMILES) | IC50 [nM]
COc1cccc2c1nc(N)n1nc(C3CC(c4ccc([C@@H](N)C(F)(F)F)nc4)C3)nc21 (stereo partly drawn) [Ex-96, 2-[(1r,3r)-3-{6-[(1R)-1-amino-2,2,2-trifluoroethyl]pyridin-3-yl}cyclobutyl]-7-methoxy[1,2,4]triazolo[1,5-c]quinazolin-5-amine] | 14

Reference: patent US20250171447A1, “ADENOSINE RECEPTOR ANTAGONISTS, PHARMACEUTICAL COMPOSITIONS AND THEIR USE THEREOF” (Merck Sharp & Dohme LLC, priority 2022, published 2025)
